Test results taken from the supplement of paper PMC10627819.

How the values were obtained:
Test in all cases: fitness (endpoint OD595 vs no drug) (fraction); higher = more growth
[1] = system: B. subtilis 168
How it was run: (§1)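 Each well of a 384-well plate received 30 µl of culture at OD595 0.01, or 55 µl for S. pneumoniae. TSB, LB Lennox or CY served as media at 37 °C. OD595 was taken every 30 min for 14 h and corrected by subtracting the first reading. Fitness is the optical density at stationary-phase entry divided by the robust mean of no-drug controls, capped at 1.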

[2] = system: S. aureus DSM 20231
How it was run: as §1

[3] = system: S. pneumoniae D39V
How it was run: as §1

[4] = system: S. aureus Newman
How it was run: as §1

[5] = first compound 0.125 µg/mL, partner 0.125 µg/mL
[6] = first compound 0.125 µg/mL, partner 0.25 µg/mL
[7] = first compound 0.125 µg/mL, partner 0.5 µg/mL
[8] = first compound 0.25 µg/mL, partner 0.125 µg/mL
[9] = first compound 0.25 µg/mL, partner 0.25 µg/mL
[10] = first compound 0.25 µg/mL, partner 0.5 µg/mL
[11] = first compound 12.5 µg/mL, partner 1 µg/mL
[12] = first compound 25 µg/mL, partner 1 µg/mL
[13] = first compound 0.375 µg/mL, partner 0.0625 µg/mL
[14] = first compound 0.375 µg/mL, partner 0.125 µg/mL
[15] = first compound 0.75 µg/mL, partner 0.0625 µg/mL
[16] = first compound 0.75 µg/mL, partner 0.125 µg/mL
[17] = first compound 1.5 µg/mL, partner 0.0625 µg/mL
[18] = first compound 1.5 µg/mL, partner 0.125 µg/mL

`N[C@@H]1CONC1=O` [Cycloserine D] + CCC[C@@H]1C[C@@H](C(=O)N[C@@H]([C@H]2O[C@H](SC)[C@H](O)[C@@H](O)[C@H]2O)[C@@H](C)O)N(C)C1 [Lincomycin] was tested, and the fitness ([1]; first compound 0.125 µg/mL, partner 0.1 µg/mL) was 0.87, the fitness ([1]; first compound 0.125 µg/mL, partner 0.2 µg/mL) was 0.861 and the fitness ([1]; first compound 0.125 µg/mL, partner 0.4 µg/mL) was 0.868. It also gave a fitness ([1]; first compound 0.125 µg/mL, partner 0.8 µg/mL, one replicate) of 0.923, a fitness ([1]; first compound 0.125 µg/mL, partner 1.6 µg/mL, one replicate) of 0.88 and a fitness ([1]; first compound 0.25 µg/mL, partner 0.1 µg/mL) of 0.873. The fitness ([1]; first compound 0.25 µg/mL, partner 0.2 µg/mL) was 0.877, the fitness ([1]; first compound 0.25 µg/mL, partner 0.4 µg/mL) was 0.906 and the fitness ([1]; first compound 0.25 µg/mL, partner 0.8 µg/mL, one replicate) was 0.939. It also gave a fitness ([1]; first compound 0.25 µg/mL, partner 1.6 µg/mL, one replicate) of 0.813, a fitness ([1]; first compound 0.5 µg/mL, partner 0.1 µg/mL) of 0.911 and a fitness ([1]; first compound 0.5 µg/mL, partner 0.2 µg/mL) of 0.932. For the same compound, the fitness ([1]; first compound 0.5 µg/mL, partner 0.4 µg/mL) was 0.964, the fitness ([1]; first compound 0.5 µg/mL, partner 0.8 µg/mL, one replicate) was 0.905 and the fitness ([1]; first compound 0.5 µg/mL, partner 1.6 µg/mL, one replicate) was 0.862. It also gave a fitness ([2]; first compound 0.375 µg/mL, partner 0.1 µg/mL) of 0.936, a fitness ([2]; first compound 0.375 µg/mL, partner 0.4 µg/mL) of 0.278 and a fitness ([2]; first compound 0.75 µg/mL, partner 0.1 µg/mL) of 0.921. The fitness ([2]; first compound 0.75 µg/mL, partner 0.4 µg/mL) was 0.271, the fitness ([2]; first compound 1.5 µg/mL, partner 0.1 µg/mL) was 0.915 and the fitness ([2]; first compound 1.5 µg/mL, partner 0.4 µg/mL) was 0.247.
`CCC[C@@H]1C[C@@H](C(=O)N[C@@H]([C@H]2O[C@H](SC)[C@H](O)[C@@H](O)[C@H]2O)[C@H](C)Cl)N(C)C1` [Clindamycin] + CC1=C(C(=O)O)N2C(=O)[C@@H](NC(=O)[C@H](N)c3ccccc3)[C@H]2SC1 [Cephalexin] was tested, and the fitness ([1]; first compound 0.0039 µg/mL, partner 0.25 µg/mL, one replicate) was at least 1, the fitness ([1]; first compound 0.0039 µg/mL, partner 0.5 µg/mL, one replicate) was 0.984 and the fitness ([1]; first compound 0.0039 µg/mL, partner 1 µg/mL, one replicate) was 0.96. It also gave a fitness ([1]; first compound 0.0078 µg/mL, partner 0.25 µg/mL, one replicate) of 0.863, a fitness ([1]; first compound 0.0078 µg/mL, partner 0.5 µg/mL, one replicate) of 0.844 and a fitness ([1]; first compound 0.0078 µg/mL, partner 1 µg/mL, one replicate) of 0.886. For the same compound, the fitness ([1]; first compound 0.0156 µg/mL, partner 0.25 µg/mL, one replicate) was 0.839, the fitness ([1]; first compound 0.0156 µg/mL, partner 0.5 µg/mL, one replicate) was 0.868 and the fitness ([1]; first compound 0.0156 µg/mL, partner 1 µg/mL, one replicate) was 0.883. The fitness ([1]; first compound 0.0625 µg/mL, partner 0.125 µg/mL) was 0.556, the fitness ([1]; first compound 0.0625 µg/mL, partner 0.25 µg/mL) was 0.465 and the fitness ([1]; first compound 0.0625 µg/mL, partner 0.5 µg/mL) was 0.482. The fitness [1, 5] was 0.376, the fitness [1, 6] was 0.344 and the fitness [1, 7] was 0.348. It also gave a fitness [1, 8] of 0.351, a fitness [1, 9] of 0.335 and a fitness [1, 10] of 0.34. For the same compound, the fitness ([3]; first compound 0.0125 µg/mL, partner 1 µg/mL) was 0.733, the fitness ([3]; first compound 0.0125 µg/mL, partner 2 µg/mL) was 0.453 and the fitness ([3]; first compound 0.0125 µg/mL, partner 4 µg/mL) was 0.0549. It also gave a fitness ([3]; first compound 0.015 µg/mL, partner 0.125 µg/mL, one replicate) of 0.898, a fitness ([3]; first compound 0.015 µg/mL, partner 0.25 µg/mL, one replicate) of 0.87 and a fitness ([3]; first compound 0.015 µg/mL, partner 0.5 µg/mL, one replicate) of 0.899. The fitness ([3]; first compound 0.025 µg/mL, partner 1 µg/mL) was 0.519, the fitness ([3]; first compound 0.025 µg/mL, partner 2 µg/mL) was 0.294 and the fitness ([3]; first compound 0.025 µg/mL, partner 4 µg/mL) was 0.0703. For the same compound, the fitness ([3]; first compound 0.03 µg/mL, partner 0.125 µg/mL, one replicate) was 0.751, the fitness ([3]; first compound 0.03 µg/mL, partner 0.25 µg/mL, one replicate) was 0.799 and the fitness ([3]; first compound 0.03 µg/mL, partner 0.5 µg/mL, one replicate) was 0.836. It also gave a fitness ([3]; first compound 0.05 µg/mL, partner 1 µg/mL) of 0.179, a fitness ([3]; first compound 0.05 µg/mL, partner 2 µg/mL) of 0.114 and a fitness ([3]; first compound 0.05 µg/mL, partner 4 µg/mL) of 0.0475. It also gave a fitness ([3]; first compound 0.06 µg/mL, partner 0.125 µg/mL, one replicate) of 0.642, a fitness ([3]; first compound 0.06 µg/mL, partner 0.25 µg/mL, one replicate) of 0.667 and a fitness ([3]; first compound 0.06 µg/mL, partner 0.5 µg/mL, one replicate) of 0.645. It also gave a fitness ([4]; first compound 0.0312 µg/mL, partner 0.5 µg/mL) of 0.795 and a fitness ([4]; first compound 0.0312 µg/mL, partner 1 µg/mL) of 0.82.
Work on `O=C(O[C@@H]1Cc2c(O)cc(O)cc2O[C@@H]1c1cc(O)c(O)c(O)c1)c1cc(O)c(O)c(O)c1` [EGCG] + CC1=C(C(=O)O)N2C(=O)[C@@H](NC(=O)[C@H](N)c3ccccc3)[C@H]2SC1 [Cephalexin] yielded a fitness ([1]; first compound 6.25 µg/mL, partner 0.125 µg/mL) of 0.875, a fitness ([1]; first compound 6.25 µg/mL, partner 0.25 µg/mL) of 0.988 and a fitness ([1]; first compound 6.25 µg/mL, partner 0.5 µg/mL) of 0.919. For the same compound, the fitness ([1]; first compound 6.25 µg/mL, partner 1 µg/mL, one replicate) was 0.993, the fitness ([1]; first compound 12.5 µg/mL, partner 0.125 µg/mL) was 0.51 and the fitness ([1]; first compound 12.5 µg/mL, partner 1 µg/mL, one replicate) was 0.862. It also gave a fitness ([1]; first compound 25 µg/mL, partner 0.125 µg/mL) of 0.222, a fitness ([1]; first compound 25 µg/mL, partner 1 µg/mL, one replicate) of 0.697 and a fitness ([3]; first compound 12.5 µg/mL, partner 0.125 µg/mL, one replicate) of 0.926. It also gave a fitness ([3]; first compound 12.5 µg/mL, partner 0.25 µg/mL, one replicate) of 0.902, a fitness ([3]; first compound 12.5 µg/mL, partner 0.5 µg/mL, one replicate) of 0.932 and a fitness [3, 11] of 0.669. For the same compound, the fitness ([3]; first compound 12.5 µg/mL, partner 2 µg/mL) was 0.0733, the fitness ([3]; first compound 12.5 µg/mL, partner 4 µg/mL) was 0.0244 and the fitness ([3]; first compound 25 µg/mL, partner 0.125 µg/mL, one replicate) was 0.96. The fitness ([3]; first compound 25 µg/mL, partner 0.25 µg/mL, one replicate) was 0.919, the fitness ([3]; first compound 25 µg/mL, partner 0.5 µg/mL, one replicate) was 0.98 and the fitness [3, 12] was 0.72. The fitness ([3]; first compound 25 µg/mL, partner 2 µg/mL) was 0.2, the fitness ([3]; first compound 25 µg/mL, partner 4 µg/mL) was 0.0566 and the fitness ([3]; first compound 50 µg/mL, partner 0.125 µg/mL, one replicate) was at least 1. The fitness ([3]; first compound 50 µg/mL, partner 0.25 µg/mL, one replicate) was 0.937, the fitness ([3]; first compound 50 µg/mL, partner 0.5 µg/mL, one replicate) was 0.957 and the fitness ([3]; first compound 50 µg/mL, partner 2 µg/mL) was 0.111. For the same compound, the fitness ([3]; first compound 50 µg/mL, partner 4 µg/mL) was 0.0515, the fitness ([4]; first compound 12.5 µg/mL, partner 0.25 µg/mL) was 0.737 and the fitness ([4]; first compound 12.5 µg/mL, partner 0.5 µg/mL) was 0.776. It also gave a fitness [4, 11] of 0.796, a fitness ([4]; first compound 25 µg/mL, partner 0.25 µg/mL) of 0.682 and a fitness ([4]; first compound 25 µg/mL, partner 0.5 µg/mL) of 0.762. It also gave a fitness [4, 12] of 0.806, a fitness ([4]; first compound 50 µg/mL, partner 0.25 µg/mL) of 0.775 and a fitness ([4]; first compound 50 µg/mL, partner 0.5 µg/mL) of 0.739. For the same compound, the fitness ([4]; first compound 50 µg/mL, partner 1 µg/mL) was 0.79.
In the case of `N[C@@H]1CONC1=O` [Cycloserine D] + CC1=C(C(=O)O)N2C(=O)[C@@H](NC(=O)[C@H](N)c3ccccc3)[C@H]2SC1 [Cephalexin], the fitness [1, 5] is reported as 0.865, the fitness [1, 6] is reported as 0.909 and the fitness [1, 7] is reported as 0.911. It also gave a fitness ([1]; first compound 0.125 µg/mL, partner 1 µg/mL, one replicate) of at least 1, a fitness [1, 8] of 0.894 and a fitness [1, 9] of 0.857. The fitness [1, 10] was 0.88, the fitness ([1]; first compound 0.25 µg/mL, partner 1 µg/mL, one replicate) was 0.91 and the fitness ([1]; first compound 0.5 µg/mL, partner 0.125 µg/mL) was 0.848. The fitness ([1]; first compound 0.5 µg/mL, partner 0.25 µg/mL) was 0.921, the fitness ([1]; first compound 0.5 µg/mL, partner 0.5 µg/mL) was 0.867 and the fitness ([1]; first compound 0.5 µg/mL, partner 1 µg/mL, one replicate) was 0.985. For the same compound, the fitness ([4]; first compound 0.375 µg/mL, partner 0.25 µg/mL) was 0.948, the fitness ([4]; first compound 0.375 µg/mL, partner 0.5 µg/mL) was 0.972 and the fitness ([4]; first compound 0.375 µg/mL, partner 1 µg/mL) was 0.992. It also gave a fitness ([4]; first compound 0.75 µg/mL, partner 0.25 µg/mL) of 0.955, a fitness ([4]; first compound 0.75 µg/mL, partner 0.5 µg/mL) of at least 1 and a fitness ([4]; first compound 0.75 µg/mL, partner 1 µg/mL) of at least 1. The fitness ([4]; first compound 1.5 µg/mL, partner 0.25 µg/mL) was 0.926, the fitness ([4]; first compound 1.5 µg/mL, partner 0.5 µg/mL) was 0.971 and the fitness ([4]; first compound 1.5 µg/mL, partner 1 µg/mL) was 0.995.
Compound `N[C@@H]1CONC1=O` [Cycloserine D] + Cn1nnc(-c2ccc(-c3ccc(N4C[C@H](CO)OC4=O)cc3F)cn2)n1 [Tedizolid] has a fitness [2, 13] of 0.95, a fitness [2, 14] of 0.738 and a fitness [2, 15] of 0.942. It also gave a fitness [2, 16] of 0.802, a fitness [2, 17] of 0.923 and a fitness [2, 18] of 0.827. For the same compound, the fitness [4, 13] was 0.956, the fitness [4, 14] was 0.925 and the fitness [4, 15] was 0.938. For the same compound, the fitness [4, 16] was 0.842, the fitness [4, 17] was 0.99 and the fitness [4, 18] was 0.855.
